Assay results reported in paper PMC11364104, “Discovery of SARS-CoV-2 papain-like protease (PL^pro) inhibitors with efficacy in a murine infection model” (Science Advances, 2024).
Like-named read-outs stand apart in the source and are kept apart here.

What was measured:
Rat pharmacokinetics = type: in vivo, Wistar-Hannover rat; details: for Vd: rat, iv, 1 mg/kg, read-out: Vdss
Description: Figure S1. Setting Up the Collaboration Workflow and Operations
Preclinical Pharmacokinetics Studies
All activities involving animals were carried out in accordance with federal, state, local and institutional guidelines governing the use of laboratory animals in research in AAALAC accredited facilities and were reviewed and approved by Pfizer’s or Bioduro’s Institutional Animal Care and Use committee.
Mouse pharmacokinetic studies were done at BioDuro Pharmaceutical Product Development Inc. (Shanghai, PRC); male C57BL6 mice were purchased from Vital River (Beijing, China) and were typically 7-9 weeks of age at the time of dosing. During the pharmacokinetic studies all animals were housed individually. Access to food and water was provided ad libitum (i.e., subjects were dosed in the fed state). Compounds were administered intravenously (iv) via tail vein (n=2) dosed as a solution (1 mg/kg, 3 mL/kg) or via oral gavage as a solution (10 mg/kg, 3 mL/kg and 30 mg/kg, 3mL/kg) or as a suspension (15 mg/kg, 10 mL/kg; 50 mg/kg, 10 mL/kg; and 150 mg/kg, 10mL/kg). Dosing solutions were prepared immediately before dosing. The composition of each dosing vehicle is provided in Tables S5 and S6. Isoflurane was administered as anesthesia at 1-2% dose prior to collecting blood samples. Serial blood samples were collected via the retroorbital capillary at predetermined timepoints after dosing. Animals were monitored for pain or distress throughout the study, with at least daily monitoring during normal husbandry prior to study start. At the completion of the study, animals were euthanized by overdose of inhaled carbon dioxide. Blood samples were collected into tubes containing K2EDTA and stored on ice until centrifugation to obtain plasma, which was stored frozen at - 20 °C or lower until bioanalysis.
Rat pharmacokinetic studies were done at BioDuro Pharmaceutical Product Development Inc. (Shanghai, PRC); jugular vein- cannulated male Wistar-Hannover rats were purchased
(1 picture or pasted object on this page, not shown here) […]
from Vital River (Beijing, China) and were typically 7-9 weeks of age at the time of dosing.
During the pharmacokinetic studies all animals were housed individually. Access to food and water was provided ad libitum (i.e., subjects were dosed in the fed state). In the instances where oral (po) dose was administered in the fed state, with ad libitum access to food and water. Compounds were administered intravenously (iv) via the tail vein (n = 2) dosed as a solution (1 mg/kg, 3 ml/kg) or via oral gavage as a solution (10 mg/kg, 10 ml/kg). Dosing solutions were prepared immediately before dosing. The composition of each dosing vehicle […]
Serial blood samples were collected via the jugular vein cannula at […]
centrifugation to obtain plasma, which was stored frozen at - 20 °C or lower.
Dog pharmacokinetic studies were done at Pfizer (Groton, CT). All procedures performed on beagle dogs were in accordance with regulations and established guidelines and were reviewed and approved by an Institutional Animal Care and Use Committee through an ethical review process. Male Beagle dogs were purchased from Marshall Bioresources (North Rose, NY); subjects 3 years of age were used in pharmacokinetics studies. For each study (n=2), compounds were dosed iv by cephalic vein as a solution (0.5 mg/kg, 1 mL/kg) or via oral gavage as a suspension (3 mg/kg, 5 mL/kg). In the instances where oral (po) dose was administered in the fed state, dogs were fed a couple hours before dosing. In the instances where the IV dose was administered in the fasted state, dogs were fasted over night and fed 4 hours post dose. Subjects were monitored for pain or distress throughout the study followed by at least daily monitoring while off study. The iv dosing vehicle was optimized such that the compounds were in solution and stable for at least 24 h. Serial blood samples were collected via the jugular vein at predefined time points post-dose. Blood […]

VEGFR2 Kinase = biological target: T1, VEGFR2 Kinase (Homo sapiens, UniProt P35968); assay: CEREP kinase inhibition; type: biochemical
T1 construct: purchased Eurofins Cerep

[1] = biological target: T2, human Nav1.5 sodium channel (Homo sapiens, UniProt Q14524); assay: hNav1.5 automated patch clamp; type: cell-based; details: read-out: NaV IC50
T2 construct: assay run at Metrion Biosciences Ltd; host or cells: CHO
Description: Hz, and hCav1.2 current was measured as the peak current at 0 mV. All studies were […]
Three vehicle periods each lasting 5 minutes were applied to establish a stable baseline.
This was followed by the addition of increasing concentrations of test compound, with each exposure lasting 5 minutes. Patch clamp data were analyzed using Analyzer Software 6.4.72. Current amplitudes were determined by averaging the last 4 currents under each test condition. The percentage inhibition of each compound was determined by taking the ratio of current amplitude measured in the presence of various concentrations of the test compound (ICompound) versus the vehicle control current (IVehicle): % Inhibition = [1-(I Compound/IVehicle)] * 100%. A dose-response curve was generated and fit to the Hill equation by the Sophion Analyzer software to determine an IC50 value for each compound. The minimum and the […]
CHO cells stably expressing the human Nav1.5 sodium channel (University of Pennsylvania, Philadelphia, PA, hNav1.5 clone #6) were cultured in Hams F12 + Glutamax media supplemented with 10% FBS and Geneticin (0.5 mg/mL) at 37°C and 5% CO2 and subcultured every 2-3 days in T175 flasks. […]
Ionic currents were evaluated in the whole-cell configuration using the Qube384 platform using QChip 384x plates. […]

Cyclooxygenase 2 = biological target: T3, Cyclooxygenase 2 (Homo sapiens, UniProt P35354); assay: CEREP enzyme inhibition; type: biochemical
T3 construct: purchased Eurofins Cerep

Human Cathepsin V = biological target: T4, Human Cathepsin V (Homo sapiens, UniProt O60911); assay: biochemical
T4 construct: assay run at Reaction Biology Corporation

[2] = Wistar-Hannover, plasma, Male Wistar Hanover Rat, 1.0 mg/kg iv, solution, mean n=2
[3] = Wistar-Hannover, plasma, Male Wistar Hanover Rat, 10 mg/kg po, solution, mean n=2

T4 sequence (O60911 114-334): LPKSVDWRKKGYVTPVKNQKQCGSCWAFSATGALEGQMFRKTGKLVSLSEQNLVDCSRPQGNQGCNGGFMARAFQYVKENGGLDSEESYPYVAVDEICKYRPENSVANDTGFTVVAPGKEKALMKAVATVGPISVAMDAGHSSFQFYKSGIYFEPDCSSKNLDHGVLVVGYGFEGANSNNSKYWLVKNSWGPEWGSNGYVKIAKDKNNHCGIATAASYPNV
T2 sequence (Q14524 whole entry): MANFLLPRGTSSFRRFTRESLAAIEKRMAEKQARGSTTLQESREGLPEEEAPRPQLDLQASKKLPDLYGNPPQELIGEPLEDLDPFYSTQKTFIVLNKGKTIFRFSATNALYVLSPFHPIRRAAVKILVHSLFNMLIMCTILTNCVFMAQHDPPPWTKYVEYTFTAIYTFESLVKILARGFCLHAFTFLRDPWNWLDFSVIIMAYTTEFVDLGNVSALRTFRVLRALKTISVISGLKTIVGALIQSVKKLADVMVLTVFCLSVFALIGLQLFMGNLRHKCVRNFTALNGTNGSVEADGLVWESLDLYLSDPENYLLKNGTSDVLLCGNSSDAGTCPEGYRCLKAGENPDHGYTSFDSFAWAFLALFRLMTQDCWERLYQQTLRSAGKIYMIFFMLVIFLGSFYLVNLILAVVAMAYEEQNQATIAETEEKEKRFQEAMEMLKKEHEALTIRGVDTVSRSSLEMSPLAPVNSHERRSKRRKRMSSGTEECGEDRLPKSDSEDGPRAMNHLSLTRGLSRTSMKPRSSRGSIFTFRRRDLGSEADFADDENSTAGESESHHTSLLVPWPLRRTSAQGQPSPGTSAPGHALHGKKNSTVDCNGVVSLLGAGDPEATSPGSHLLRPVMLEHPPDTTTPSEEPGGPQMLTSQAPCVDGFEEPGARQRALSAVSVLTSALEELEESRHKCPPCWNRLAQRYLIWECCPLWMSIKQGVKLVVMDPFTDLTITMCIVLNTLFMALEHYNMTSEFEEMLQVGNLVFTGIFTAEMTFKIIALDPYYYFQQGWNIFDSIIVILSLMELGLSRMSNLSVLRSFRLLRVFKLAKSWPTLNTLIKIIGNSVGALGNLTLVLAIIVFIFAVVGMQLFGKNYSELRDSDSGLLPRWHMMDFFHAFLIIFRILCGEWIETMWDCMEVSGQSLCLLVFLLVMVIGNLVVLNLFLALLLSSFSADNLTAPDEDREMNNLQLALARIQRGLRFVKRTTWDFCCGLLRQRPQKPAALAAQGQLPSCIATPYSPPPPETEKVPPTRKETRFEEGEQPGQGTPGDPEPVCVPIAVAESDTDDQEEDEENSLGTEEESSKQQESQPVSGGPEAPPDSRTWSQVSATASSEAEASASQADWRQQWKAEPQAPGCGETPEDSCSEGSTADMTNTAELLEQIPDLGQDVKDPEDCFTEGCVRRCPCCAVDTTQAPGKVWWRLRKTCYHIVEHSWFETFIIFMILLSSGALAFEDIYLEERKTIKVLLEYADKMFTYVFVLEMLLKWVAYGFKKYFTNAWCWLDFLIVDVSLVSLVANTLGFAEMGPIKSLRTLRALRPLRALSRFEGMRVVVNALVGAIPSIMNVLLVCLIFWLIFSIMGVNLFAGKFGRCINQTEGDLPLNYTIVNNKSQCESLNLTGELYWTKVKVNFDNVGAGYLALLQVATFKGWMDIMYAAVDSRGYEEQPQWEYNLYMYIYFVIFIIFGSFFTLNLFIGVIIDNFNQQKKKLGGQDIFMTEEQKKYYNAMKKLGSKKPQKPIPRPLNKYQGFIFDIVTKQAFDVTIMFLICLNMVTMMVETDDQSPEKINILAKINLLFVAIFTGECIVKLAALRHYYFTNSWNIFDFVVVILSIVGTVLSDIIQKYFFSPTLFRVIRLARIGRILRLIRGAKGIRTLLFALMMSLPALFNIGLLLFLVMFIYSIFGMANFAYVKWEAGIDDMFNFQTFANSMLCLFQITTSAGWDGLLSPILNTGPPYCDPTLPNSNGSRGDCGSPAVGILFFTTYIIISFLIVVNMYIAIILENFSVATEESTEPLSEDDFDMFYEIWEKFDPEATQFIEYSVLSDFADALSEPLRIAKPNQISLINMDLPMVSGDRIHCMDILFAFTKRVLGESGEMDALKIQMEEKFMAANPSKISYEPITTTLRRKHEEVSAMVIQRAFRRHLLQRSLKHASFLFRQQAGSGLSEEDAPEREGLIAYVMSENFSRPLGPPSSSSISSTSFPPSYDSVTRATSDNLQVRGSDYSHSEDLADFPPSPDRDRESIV
T3 sequence (P35354 18-604): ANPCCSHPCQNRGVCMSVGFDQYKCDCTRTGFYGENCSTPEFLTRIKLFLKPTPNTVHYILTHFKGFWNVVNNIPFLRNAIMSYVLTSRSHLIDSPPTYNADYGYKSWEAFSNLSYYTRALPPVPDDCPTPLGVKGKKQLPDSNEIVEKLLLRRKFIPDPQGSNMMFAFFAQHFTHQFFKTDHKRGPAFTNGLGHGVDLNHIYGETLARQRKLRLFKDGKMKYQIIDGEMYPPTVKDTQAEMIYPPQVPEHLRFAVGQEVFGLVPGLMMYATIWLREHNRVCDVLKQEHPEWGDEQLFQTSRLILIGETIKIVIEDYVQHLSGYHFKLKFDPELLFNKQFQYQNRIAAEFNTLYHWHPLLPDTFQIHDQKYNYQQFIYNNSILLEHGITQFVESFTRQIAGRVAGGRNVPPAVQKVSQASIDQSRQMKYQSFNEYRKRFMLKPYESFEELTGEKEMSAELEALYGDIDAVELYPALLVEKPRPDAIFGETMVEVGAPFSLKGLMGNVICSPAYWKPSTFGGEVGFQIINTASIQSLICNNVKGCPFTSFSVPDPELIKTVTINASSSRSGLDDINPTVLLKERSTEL
T1 sequence (P35968 20-1356): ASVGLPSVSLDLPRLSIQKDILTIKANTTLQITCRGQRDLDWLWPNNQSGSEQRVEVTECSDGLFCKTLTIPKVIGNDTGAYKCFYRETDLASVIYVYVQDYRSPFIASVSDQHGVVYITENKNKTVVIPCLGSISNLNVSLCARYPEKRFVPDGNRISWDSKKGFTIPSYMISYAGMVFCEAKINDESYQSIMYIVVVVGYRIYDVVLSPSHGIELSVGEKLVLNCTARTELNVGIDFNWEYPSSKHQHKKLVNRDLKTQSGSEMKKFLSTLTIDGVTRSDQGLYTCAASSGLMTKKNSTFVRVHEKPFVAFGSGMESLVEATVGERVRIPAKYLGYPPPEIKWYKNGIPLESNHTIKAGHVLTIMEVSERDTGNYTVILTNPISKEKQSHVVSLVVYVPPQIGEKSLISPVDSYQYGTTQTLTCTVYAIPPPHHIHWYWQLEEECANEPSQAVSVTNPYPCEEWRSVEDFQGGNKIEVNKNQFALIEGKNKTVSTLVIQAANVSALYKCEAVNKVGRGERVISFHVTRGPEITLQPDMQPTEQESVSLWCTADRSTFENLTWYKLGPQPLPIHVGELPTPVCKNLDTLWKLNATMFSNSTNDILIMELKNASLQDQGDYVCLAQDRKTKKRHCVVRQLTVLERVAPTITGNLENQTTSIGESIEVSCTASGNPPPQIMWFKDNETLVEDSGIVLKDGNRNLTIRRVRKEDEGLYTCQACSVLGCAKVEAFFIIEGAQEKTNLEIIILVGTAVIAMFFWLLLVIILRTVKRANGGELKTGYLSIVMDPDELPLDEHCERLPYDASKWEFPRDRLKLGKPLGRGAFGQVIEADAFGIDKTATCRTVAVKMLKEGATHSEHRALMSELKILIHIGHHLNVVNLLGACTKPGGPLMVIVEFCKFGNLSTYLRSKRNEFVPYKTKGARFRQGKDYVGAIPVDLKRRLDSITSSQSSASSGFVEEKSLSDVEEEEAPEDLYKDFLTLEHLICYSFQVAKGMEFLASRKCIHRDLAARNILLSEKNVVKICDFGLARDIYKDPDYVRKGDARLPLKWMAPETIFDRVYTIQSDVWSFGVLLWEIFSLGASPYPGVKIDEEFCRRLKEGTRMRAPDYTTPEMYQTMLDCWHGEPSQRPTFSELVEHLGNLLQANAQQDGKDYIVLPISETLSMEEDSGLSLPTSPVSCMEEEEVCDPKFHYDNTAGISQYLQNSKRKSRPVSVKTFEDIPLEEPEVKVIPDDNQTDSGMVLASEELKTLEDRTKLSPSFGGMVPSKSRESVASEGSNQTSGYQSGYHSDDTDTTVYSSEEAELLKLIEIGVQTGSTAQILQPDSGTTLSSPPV

Cc1ccc(N2CCN(C)CC2)cc1C(=O)NC1(c2cc(-c3cnn(C)c3)nc3ccccc23)CC1 [Compound 4]
Oral F (Rat pharmacokinetics; Male Wistar Hanover Rat, 10 mg/kg po, solution, mean n=2): 69.7% | AUC(0-inf) (Rat pharmacokinetics; [2]): 668 ng·h/mL | half-life (Rat pharmacokinetics; [2]): 3.59 h | clearance (Rat pharmacokinetics; Wistar-Hannover, plasma, Male Wistar Hanover Rat, 1.0 mg/kg iv, solution, mean n=2, read-out: CLp): 25.2 mL/min/kg | AUC(0-inf) (Rat pharmacokinetics; [3]): 4650 ng·h/mL | Cmax (Rat pharmacokinetics; [3]): 435 ng/mL | Tmax (Rat pharmacokinetics; [3]): 3 h | half-life (Rat pharmacokinetics; [3]): 3.19 h | bioavailability (Rat pharmacokinetics; male, Wistar-Hannover, plasma, po, 10 mg/kg, rat (r), read-out: Oral F (%)): 69.7% | Vd (Rat pharmacokinetics; male, Wistar-Hannover, plasma, Male Wistar Hanover Rat, 1.0 mg/kg iv, solution, mean n=2): 4.42 L/kg | Vd (Rat pharmacokinetics; male, Wistar-Hannover, plasma, rat (r), intravenous): 4.4 L/kg | inhibition at 30 µM (VEGFR2 Kinase): 11% | IC50 [1]: > 100 µM | inhibition at 30 µM (Cyclooxygenase 2): 36% | IC50 (Human Cathepsin V): > 100 µM
